Results: publication PMC8581430, “Peptide ligands targeting FGF receptors promote recovery from dorsal root crush injury via AKT/mTOR signaling” (Theranostics, 2021)

Columns and labels:
[1] = test system: DRG explants; assay: Axon growth of ex vivo cultured adult DRG explants; assay type: cell-based, Sprague-Dawley rat; conditions: CH02 20 μM + Torin1 1 μM, 4 days, n = 4
Protocol: Figure 3 Effect of the CH02 peptide on axon growth and neuron survival. (A) Representative images of the CH02 peptide effect on axon growth in adult primary DRG neurons. DRG neurons were obtained from adult Sprague-Dawley rats. After 12-h of culture, neurons were stimulated with CH02 or bFGF for 48 h. Axonal outgrowth was assessed by immunocytochemistry using an antibody against β-tubulin, an axonal marker. Images were acquired from random neurons by fluorescence microscopy. Scale bars = 50 μm. (B) Quantification of the longest axon length of each neuron randomly selected in three independent experiments from (A), using Image-Pro Plus 6.0 software (n = 48 for each condition; *p < 0.05, ****p < 0.0001 by one-way ANOVA with Dunnett's test; ns, not significant; mean ± SD). (C) Representative images of the CH02 effect on axon growth in ex vivo cultured adult DRG explants. The axon is shown in fluorescence (β3-tubulin) images. Scale bars = 100 μm. (D) Quantification of axon growth of DRG explants from (C) using the Neurite-J software (n=4 for each condition; *control vs. CH02; #control vs. bFGF; *p < 0.05, **p < 0.01, ***p < 0.001, #p < 0.05, ##p < 0.01 by two-way ANOVA with Dunnett's test; ns, not significant; mean ± SEM). (E) Cell cytotoxicity assay of primary DRG neurons induced by H2O2. LDH released from damaged cell membranes was detected by an LDH assay kit. The results are expressed as the mean ± SEM (**p < 0.01 by one-way ANOVA with Dunnett's test; ns, not significant, compared with the control group). […] Apoptotic neurons were detected by a TUNEL apoptosis assay kit. […] (G) Quantification of TUNEL-positive neurons from (F) (n = 3 for each condition; **p < 0.01 by one-way ANOVA with Dunnett's test; ns, not significant, compared with the control group). […]
DRG explants were harvested from adult Sprague-Dawley rats (220-250 g) and placed in a 3.5 cm dish containing 2 mL of ice-cold neurobasal medium supplemented with 1 × B27, 4 mM Glutamax and 3× penicillin/streptomycin (Pen/Strep). […] After 7 days of culture, axon growth was measured. […]

[2] = test system: primary DRG neurons; assay: Axon growth of primary adult DRG neurons; assay type: cell-based, Sprague-Dawley rat; conditions: CH02 20 μM + Torin1 1 μM, 48 h, n = 62
Protocol: Figure 3 Effect of the CH02 peptide on axon growth and neuron survival. (A) Representative images of the CH02 peptide effect on axon growth in adult primary DRG neurons. DRG neurons were obtained from adult Sprague-Dawley rats. After 12-h of culture, neurons were stimulated with CH02 or bFGF for 48 h. Axonal outgrowth was assessed by immunocytochemistry using an antibody against β-tubulin, an axonal marker. Images were acquired from random neurons by fluorescence microscopy. Scale bars = 50 μm. (B) Quantification of the longest axon length of each neuron randomly selected in three independent experiments from (A), using Image-Pro Plus 6.0 software (n = 48 for each condition; *p < 0.05, ****p < 0.0001 by one-way ANOVA with Dunnett's test; ns, not significant; mean ± SD). (C) Representative images of the CH02 effect on axon growth in ex vivo cultured adult DRG explants. The axon is shown in fluorescence (β3-tubulin) images. Scale bars = 100 μm. (D) Quantification of axon growth of DRG explants from (C) using the Neurite-J software (n=4 for each condition; *control vs. CH02; #control vs. bFGF; *p < 0.05, **p < 0.01, ***p < 0.001, #p < 0.05, ##p < 0.01 by two-way ANOVA with Dunnett's test; ns, not significant; mean ± SEM). (E) Cell cytotoxicity assay of primary DRG neurons induced by H2O2. LDH released from damaged cell membranes was detected by an LDH assay kit. The results are expressed as the mean ± SEM (**p < 0.01 by one-way ANOVA with Dunnett's test; ns, not significant, compared with the control group). (F) Representative TUNEL staining of apoptotic neurons induced by H2O2 in the control, CH02, and FGF2 groups. Scale bars = 50 μm. Apoptotic neurons were detected by a TUNEL apoptosis assay kit. TUNEL (green); NeuN, neuronal marker (red); DAPI (blue). (G) Quantification of TUNEL-positive neurons from (F) (n = 3 for each condition; **p < 0.01 by one-way ANOVA with Dunnett's test; ns, not significant, compared with the control group). DRG neurons were obtained from adult Sprague-Dawley rats. […]

[3] = test system: dorsal root injury (DRI) model; assay: Plantar test after dorsal root crush injury; assay type: in vivo, Sprague-Dawley rat; conditions: rats after C5-T1 dorsal root crush, up to 8 weeks, n = 5
Protocol: (§1) Animals were anesthetized by intraperitoneal injection of pentobarbital sodium (40 mg/kg body weight) and local injection of 0.5% lidocaine. Under sterile conditions, a skin incision between the C4 and T2 spinous processes was made using a no. 10 scalpel blade. Subsequent surgeries were performed under a stereomicroscope. The muscles attached to the lamina were separated and removed using a surgical blade and microscissors to expose the lamina. A right hemilaminectomy on the C5-T1 vertebrae was performed using a fine rongeur to expose the right C5-T1 DRGs and associated dorsal roots. After dura mater opening, a concurrent C5 -T1 dorsal root crush injury was performed using no. 7 forceps. The tines of the forceps were inserted above and below the root, halfway between the dorsal root ganglia and DREZ. Each root was crushed three times, five times each, to ensure that the dorsal roots were crushed to sever all the axons within the root completely. […]
Animals treated with CH02 or FGF2 (n = 5 animals per group) were assessed using the following behavioral tests:
Animals were acclimated to the testing room for at least 60 min before baseline testing, conducted before any surgical procedure. After dorsal root crush injuries, temperature sensation was measured twice a week for 8 weeks. […] Simultaneously, the paw withdrawal latency was recorded. […]

[4] = test system: dorsal root injury (DRI) model; assay: Von Frey test after dorsal root crush injury; assay type: in vivo, Sprague-Dawley rat; conditions: rats after C5-T1 dorsal root crush, up to 8 weeks, n = 5
Protocol: as §1, with “DREZ.” for “DREZ. Each root was crushed three times, five times each, to ensure that the dorsal roots were crushed to sever all the axons within the root completely.”
Animals treated with CH02 or FGF2 (n = 5 animals per group) were assessed using the following behavioral tests: […]
After an acclimation period, the animal was stimulated using a Von Frey-type 0.5 mm filament, which was placed below the center of the plantar surface of the tested paw with increasing pressure. On every test day, each foot (left front and right front) was measured 5 times at 5-min intervals, and the number of paw withdrawals was recorded.

Molecule | effect of mTOR inhibitor on CH02-promoted axon growth, DRG explants [1] | effect of mTOR inhibitor on CH02-promoted axon growth, primary neurons [2] | thermal sensation recovery [3] | pressure sensation recovery [4]
CCC(=O)N1CCN(c2ccc(-n3c(=O)ccc4cnc5ccc(-c6cnc7ccccc7c6)cc5c43)cc2C(F)(F)F)CC1 [Torin1] | greatly reduced the effect of the CH02 peptide in promoting axon growth | greatly reduced the effect of the CH02 peptide in promoting axon growth |  | 
FGF2 |  |  | significantly improved | significantly improved
